What all share (assay type): toxicity, cell-based
The subject of one series is U2OS. Briefly: Incucyte cell viability with U2OS. The following applies: human, 24 h, 10 µM, compound concentration 10 uM.
The test system of a further series is HEK-293T. Briefly: Incucyte cell viability with HEK293T. Conditions: human, 24 h, 10 µM, compound concentration 10 uM.
The test system of the next series is Fibroblast. Briefly: Incucyte cell viability with human fibroblast. The following applies: 24 h, 10 µM, compound concentration 10 uM.

The values that follow come from ChEMBL document CHEMBL5724709, “EUbOPEN Chemogenomics Library - IncuCyte” (2024).

SMILES strings stand for the structures. Peptide text beside a SMILES is read from it. * marks the point of attachment. CH2Cl = ClC*
Also: unitless GR value; below 1 slowed growth and below 0 cell loss.

Take `Cc1ncc(Cl)cc1NCc1ccc(C(=O)N[C@@H](CC2CCCC2)C(=O)NC2CC2)s1`: the “Growth Rate” value in the series with U2OS (replicate number 1) was found to be 0.37; with U2OS (replicate number 2), 0.86; in the series on HEK-293T (replicate number 1), 0.59; in the series on HEK-293T (replicate number 2), 0.85; in the series with Fibroblast (replicate number 1), 0.64; with Fibroblast (replicate number 2) it was 0.26.

Take `COc1cc2c(NCC3CCN(C)CC3)cc(-c3ccc(C)o3)nc2cc1OCCCN1CCCC1`: the “Growth Rate” value with U2OS (replicate number 1) is on record as -0.64; with U2OS (replicate number 2) it was -0.51; in the series on HEK-293T (replicate number 1) it was -0.36; in the series on HEK-293T (replicate number 2), -0.29; in the series with Fibroblast (replicate number 1) it was 0.34; with Fibroblast (replicate number 2) it was -0.3.

Regarding `CN1CCN(c2nc(-c3ccc(C(=O)NC4(C(=O)NCC#N)CCCCC4)cc3)cs2)CC1`, the “Growth Rate” value with U2OS (replicate number 1) was determined as 1; with HEK-293T (replicate number 1), 0.86; in the series with HEK-293T (replicate number 2) it was 0.8; in the series with Fibroblast (replicate number 1), 0.74; in the series on Fibroblast (replicate number 2), 1.

Consider `CSc1cccc(Nc2ncc3cc(-c4c(Cl)cccc4Cl)c(=O)n(C)c3n2)c1`, for which the “Growth Rate” value with U2OS (replicate number 1) is -0.64; in the series with U2OS (replicate number 2), -0.15; in the series on HEK-293T (replicate number 1) it was -0.41; with HEK-293T (replicate number 2) it was 0.24; in the series with Fibroblast (replicate number 1), -0.25; in the series with Fibroblast (replicate number 2), -0.52.

Regarding `COc1ccc(N(C(=O)Oc2c(C)cccc2C)c2ccnc(Nc3ccc(N4CCN(C)CC4)cc3)n2)c(OC)c1`, the “Growth Rate” value is on record as 0.04 in the series with U2OS (replicate number 1); 0.72 in the series with U2OS (replicate number 2); 0.49 in the series with HEK-293T (replicate number 1); 0.97 in the series with HEK-293T (replicate number 2); 0.52 with Fibroblast (replicate number 1); 1 with Fibroblast (replicate number 2).

For `CC(C)(O)c1ccc(-c2nc3c(F)cc(F)cc3c(=O)[nH]2)cc1`, the “Growth Rate” value in the series on U2OS (replicate number 1) was found to be 0.23; with U2OS (replicate number 2) it was 1; in the series with HEK-293T (replicate number 1), 0.45; in the series on HEK-293T (replicate number 2), 1; in the series with Fibroblast (replicate number 1), 0.13; with Fibroblast (replicate number 2) it was 0.87.

For the compound `COc1cc(Nc2ncc(F)c(Nc3ccc4c(n3)N(COP(=O)([O-])[O-])C(=O)C(C)(C)O4)n2)cc(OC)c1OC.O.O.O.O.O.O.[Na+].[Na+]` [FOSTAMATINIB DISODIUM], the “Growth Rate” value with U2OS (replicate number 1) is reported as -0.2; with U2OS (replicate number 2), -0.05; with HEK-293T (replicate number 1), 0.05; in the series on HEK-293T (replicate number 2), 0.51; in the series with Fibroblast (replicate number 1) it was 0.41; in the series with Fibroblast (replicate number 2), -0.16.

On to `O=C(CCCCCCNC(=O)c1cnc(N(c2ccccc2)c2ccccc2)nc1)NO` [RICOLINOSTAT], for which the “Growth Rate” value is on record as 0 in the series with U2OS (replicate number 1); 0.16 in the series with U2OS (replicate number 2); 0.73 in the series with HEK-293T (replicate number 1); 1 in the series on HEK-293T (replicate number 2); 0.23 in the series on Fibroblast (replicate number 1); -0.16 in the series on Fibroblast (replicate number 2).

With `C[C@@H]1CN(c2nccc(Nc3ccc4c(c3)n(CCC(C)(C)O)c(=O)n4C)n2)C[C@H](C)C1(F)F`, the “Growth Rate” value in the series with U2OS (replicate number 1) is 0.72; with U2OS (replicate number 2), 0.76; in the series with HEK-293T (replicate number 1), 0.03; in the series with HEK-293T (replicate number 2), 0.19; in the series with Fibroblast (replicate number 1), 0.74; with Fibroblast (replicate number 2), 1.

For `COc1cccc(-c2nccc3c2CN(c2ccccc2)C3=O)c1`, the “Growth Rate” value with U2OS (replicate number 1) worked out at 1; with U2OS (replicate number 2), 0.84; in the series on HEK-293T (replicate number 1) it was 0.75; with HEK-293T (replicate number 2) it was 0.7; in the series on Fibroblast (replicate number 1) it was 0.52; in the series on Fibroblast (replicate number 2), 0.84.

On to `CC(C)[C@@H]1C(=O)N(S(C)(=O)=O)[C@@H]2CCN(C(=O)/C=C/CN3CCCCC3)[C@H]21.Cl`, for which the “Growth Rate” value in the series with U2OS (replicate number 1) came out at 1; with U2OS (replicate number 2), 0.76; with HEK-293T (replicate number 1), 0.79; in the series on HEK-293T (replicate number 2) it was 0.98; with Fibroblast (replicate number 1), 0.66; in the series with Fibroblast (replicate number 2), 1.

Regarding `Cc1ccc(C(=O)Nc2ccc(S(=O)(=O)[O-])c3cc(S(=O)(=O)[O-])cc(S(=O)(=O)[O-])c23)cc1NC(=O)c1cccc(NC(=O)Nc2cccc(C(=O)Nc3cc(C(=O)Nc4ccc(S(=O)(=O)[O-])c5cc(S(=O)(=O)[O-])cc(S(=O)(=O)[O-])c45)ccc3C)c2)c1.[Na+].[Na+].[Na+].[Na+].[Na+].[Na+]` [SURAMIN HEXASODIUM], the “Growth Rate” value is reported as 1 with U2OS (replicate number 1); 0.7 with HEK-293T (replicate number 1); 0.83 in the series with HEK-293T (replicate number 2); 0.42 in the series with Fibroblast (replicate number 1); 0.59 with Fibroblast (replicate number 2).

Turning to `CC(=O)N[C@@H](Cc1ccc(O)cc1)C(=O)N[C@H](C(=O)N[C@@H](C)C(=O)N[C@@H](CC(=O)O)C(=O)COC(=O)c1c(C)cccc1C)C(C)C`, the “Growth Rate” value in the series on U2OS (replicate number 1) turned out to be 1; in the series on HEK-293T (replicate number 1), 0.9; in the series with HEK-293T (replicate number 2), 0.84; in the series with Fibroblast (replicate number 1), 0.47; in the series on Fibroblast (replicate number 2) it was 0.72.

Consider `O=C1Cc2cc(C(=O)N[C@@H]3C[C@H]4CC[C@@H](C3)N4S(=O)(=O)CC3CCN(CCCC(F)(F)F)CC3)c(Cl)cc2N1`, for which the “Growth Rate” value with U2OS (replicate number 1) turned out to be 1; in the series with HEK-293T (replicate number 1) it was 0.97; in the series with HEK-293T (replicate number 2) it was 1; with Fibroblast (replicate number 1), 0.96; in the series on Fibroblast (replicate number 2) it was 0.61.

As for `Cc1cc(-c2ccccc2)cc(C(=O)NNS(=O)(=O)c2ccccc2)c1F`, the “Growth Rate” value in the series with U2OS (replicate number 1) turned out to be 0.87; with U2OS (replicate number 2) it was 0.89; in the series with HEK-293T (replicate number 1), 0.49; in the series on HEK-293T (replicate number 2) it was 0.81; in the series on Fibroblast (replicate number 1) it was 1; in the series with Fibroblast (replicate number 2) it was 0.27.

As for `CS(=O)(=O)c1ccc(-c2cnc(NCc3ccco3)n3cnnc23)cc1`, the “Growth Rate” value in the series on U2OS (replicate number 1) was 1; in the series on U2OS (replicate number 2), 0.66; with HEK-293T (replicate number 1), 0.63; in the series with HEK-293T (replicate number 2) it was 0.95; in the series with Fibroblast (replicate number 1) it was 1; in the series with Fibroblast (replicate number 2) it was 0.87.

With `CCN(c1cc(-c2ccc(CN3CCOCC3)cc2)cc(C(=O)NCc2c(C)cc(C)[nH]c2=O)c1C)C1CCOCC1` [TAZEMETOSTAT], the “Growth Rate” value in the series on U2OS (replicate number 1) was found to be 0.43; in the series with U2OS (replicate number 2), 0.87; in the series on HEK-293T (replicate number 1), 0.68; in the series on HEK-293T (replicate number 2), 0.82; with Fibroblast (replicate number 1) it was 0.54.

Consider `FC(F)(F)Oc1ccc(Oc2ccnc(N3CCC(NC(=S)Nc4cccnc4)CC3)c2Cl)c(Cl)c1`, for which the “Growth Rate” value with U2OS (replicate number 1) was 0.35; in the series on U2OS (replicate number 2), 0.56; in the series with HEK-293T (replicate number 1), -0.1; in the series with HEK-293T (replicate number 2), 0.12; in the series on Fibroblast (replicate number 1), 0.38; with Fibroblast (replicate number 2), -0.07.

Consider `COC(=O)C[C@@H]1N=C(c2ccc(Cl)cc2)c2c(sc(C)c2C)-n2c(C)nnc21`, for which the “Growth Rate” value is 1 in the series on U2OS (replicate number 1); 0.62 with HEK-293T (replicate number 1); 0.77 in the series with HEK-293T (replicate number 2); 1 in the series with Fibroblast (replicate number 1); 0.73 in the series with Fibroblast (replicate number 2).

As to `CC(=O)Nc1ccc(C(=O)Nc2ccc(F)cc2N)cc1`, the “Growth Rate” value in the series on U2OS (replicate number 1) is 1; in the series on HEK-293T (replicate number 1) it was 0.67; with HEK-293T (replicate number 2), 1; in the series on Fibroblast (replicate number 1), 1.

Regarding `CC(=O)N[C@@H](Cc1ccccc1)C(=O)N[C@@H](CC(C)C)C(=O)N[C@H](C(=O)N[C@@H](CC(=O)O)C(=O)CCl)[C@@H](C)O` (Ac-FLTD-CH2Cl), the “Growth Rate” value with U2OS (replicate number 1) amounted to 0.81; with U2OS (replicate number 2) it was 0.66; with HEK-293T (replicate number 1) it was 0.96; with HEK-293T (replicate number 2) it was 0.99; with Fibroblast (replicate number 1), 0.51; in the series on Fibroblast (replicate number 2), 1.

Take `CN1CCc2c(n(Cc3ccc(C(=O)NO)cc3)c3ccccc23)C1`: the “Growth Rate” value with U2OS (replicate number 1) is reported as 0.34; in the series with U2OS (replicate number 2), 1; in the series on HEK-293T (replicate number 1), 0.89; in the series with HEK-293T (replicate number 2), 1; in the series with Fibroblast (replicate number 1) it was 1; with Fibroblast (replicate number 2), 0.54.

Turning to `O=C(NCC1(c2nc(-c3ccccc3)cs2)CCOCC1)c1cccc(-c2noc(C(F)(F)F)n2)c1`, the “Growth Rate” value in the series on U2OS (replicate number 1) amounted to 1; in the series on HEK-293T (replicate number 1), 0.36; in the series with HEK-293T (replicate number 2), 0.64; with Fibroblast (replicate number 1), 1; with Fibroblast (replicate number 2), 0.44.

Consider `CNC(=O)N1CCc2c(c(N3CCCc4cc(-c5cnn(C)c5)c(C(F)F)cc43)nn2C2CCOCC2)C1`, for which the “Growth Rate” value is listed as 0.76 in the series on U2OS (replicate number 1); 1 with U2OS (replicate number 2); 0.56 in the series on HEK-293T (replicate number 1); 0.52 in the series on HEK-293T (replicate number 2); 1 in the series with Fibroblast (replicate number 1); 0.36 in the series with Fibroblast (replicate number 2).

Take `C=C(C)[C@@H](CC=C(C)C)C[C@@]12C[C@@H](CC=C(C)C)C(C)(C)[C@@](CC=C(C)C)(C(=O)C(C(=O)c3ccc(O)c(O)c3)=C1O)C2=O` [GARCINOL]: the “Growth Rate” value was determined as 1 with U2OS (replicate number 1); 0.75 with U2OS (replicate number 2); 0.69 in the series with HEK-293T (replicate number 1); 0.83 in the series on HEK-293T (replicate number 2); 0.23 with Fibroblast (replicate number 1); 1 with Fibroblast (replicate number 2).

In the case of `C[C@H](NC(=O)c1cn(C2(C#N)CC2)cn1)C(=O)Nc1nc(-c2cccc(-c3ccn(C)n3)c2)cs1`, the “Growth Rate” value in the series with U2OS (replicate number 1) was found to be 0.33; with U2OS (replicate number 2), 1; in the series on HEK-293T (replicate number 1), 0.9; in the series on HEK-293T (replicate number 2) it was 0.86; in the series with Fibroblast (replicate number 1), 0.43; in the series with Fibroblast (replicate number 2), 1.

Consider `CCNC(=O)NCCSC[C@H]1O[C@@H](n2cnc3c(N)ncnc32)[C@H](O)[C@@H]1O`, for which the “Growth Rate” value in the series on U2OS (replicate number 1) is 1; in the series on U2OS (replicate number 2), 0.72; in the series with HEK-293T (replicate number 1) it was 0.71; with HEK-293T (replicate number 2), 0.87; in the series on Fibroblast (replicate number 1) it was 0.65; in the series on Fibroblast (replicate number 2), 0.

As to `CC[C@H](C)[C@H](NC(C)=O)C(=O)N[C@@H](CCC(=O)O)C(=O)N[C@H](C(=O)N[C@H](C=O)CC(=O)O)[C@@H](C)O.O=C(O)C(F)(F)F` (Ac-IETD-aldehyde), the “Growth Rate” value was 1 with U2OS (replicate number 1); 0.57 in the series with HEK-293T (replicate number 1); 1 in the series with HEK-293T (replicate number 2); 0.25 in the series on Fibroblast (replicate number 1); 0.42 with Fibroblast (replicate number 2).
